Values after ≈ are worked out from the molar mass of the structure shown.
What was measured:
S. pneumoniae strain D39 = assay: Micro-broth dilution time kill studies; type: cell-based, Streptococcus pneumoniae
Protocol: Negative dilution controls were subtracted from the median growth value to obtain a suitable indicator of overall bacterial production. The 96-well tray was incubated at 37° C. in 5% CO2 and read every 2 hrs for the first 12 hrs followed by final reads at 24 and 48 hrs at 600 nm.

S. aureus ATCC 49775 = assay: Time-kill assays; type: cell-based, Staphylococcus aureus
Protocol: Bactericidal activity in macrodilution assays was identified as a 3-log10 decrease from the initial inoculum size. Bacteria were cultured overnight at 37° C. on SBA. Colonies were suspended in broth and the turbidity was adjusted to a 0.5 McFarland standard to obtain a bacterial suspension of ˜10^5-CFU/ml. Bacterial suspensions were incubated at 37° C. with shaking. Aliquots were removed at 0-, 1-, 2-, 4-, 8-, 12-, and 24-h after antimicrobial addition, diluted, plated onto SBA and incubated for 48-h at 37° C. for viable count determination. Turbidimetric growth curves for S. aureus were obtained for Microtiter plate assays by monitoring optical density changes using a Bio-Rad Benchmark Plus microplate spectrophotometer at 600 nm. Optical densities were measured at 0-, 1-, 2-, 4-, 8-, 12, and 24-h after antimicrobial addition.

[1] = test system: vancomycin-resistant Enterococcus spp. (VRE); assay: Minimum inhibitory concentration assay (CLSI), VRE isolates; type: cell-based
Protocol: (§1) Minimum inhibitory concentration tests were performed according to CLSI Standards (CLSI 2008). […] The solutions were then serially diluted across the row, leaving 2 columns for positive and negative controls. A bacterial suspension was prepared by adding fresh colonies obtained from an overnight culture on Sheep Blood Agar (SBA) to a 9.1 g/L saline solution. This suspension was adjusted to a concentration of between 4×10^8 and 5×10^8 CFU/mL. Concentration of the suspension was determined by measuring optical density (OD) using a spectrophotometer at a wavelength of 600 nm where the correct concentration was determined to have an optical density of between 1.00 and 1.20. One milliliter of this suspension was added to 9 mL of saline before being added to all wells, excluding the negative control wells, in 10 μL volumes giving a final concentration of between 4×10^5 and 5×10^5 CFU/mL in each well. The tests were then incubated for 24 hours at 37° C. and then assessed both visually and using OD readings from a microplate reader at a wavelength of 600 nm. These tests were performed in duplicate but repeated if discrepancies were observed.
(§2) The minimum inhibitory concentration (MIC) was determined to be the lowest concentration of antibiotic that prevented growth of bacteria both visually and using OD readings. […]

Streptococcus pneumoniae = assay: Minimum inhibitory concentration assay (CLSI), Str. pneumoniae isolates; type: cell-based
Protocol: as §1, §2

N=C(N/N=C/c1ccc(Cl)cc1)N/N=C/c1ccc(Cl)cc1 [NCL812, 1,2-bis[(E)-(4-chlorophenyl)methylideneamino]guanidine]
effect of choline chloride in the media on growth (S. pneumoniae strain D39; 5% choline chloride, 48 hour, compared to positive and growth controls): no significant difference in growth | concentrations resulting in no bacterial growth for 48 hrs (S. pneumoniae strain D39; D39): ≥ 16 µg/mL | sub-inhibitory concentrations (growth similar to unexposed controls over 48 hour) (S. pneumoniae strain D39; D39): ≤ 2 µg/mL | entered a log phase of growth at (S. pneumoniae strain D39; D39 treated with ≦4 μg/ml NCL812): 6 hrs | growth in microdilution assay (S. aureus ATCC 49775; 1× and 4× the MIC, up to 24-h): no visible bacterial growth | remained bactericidal until (S. aureus ATCC 49775; 10-ml macrodilution, 1× and 4× the MIC, after antimicrobial addition): 8 to 12 h | bacterial regrowth observed at (S. aureus ATCC 49775; after antimicrobial addition): 12 h | susceptibility of test bacteria after time-kill exposure (S. aureus ATCC 49775; following harvesting, washing and MIC testing): remained susceptible | MIC50 [1]: 4 µg/mL (≈ 12 µM) | MIC90 [1]: 4 µg/mL (≈ 12 µM) | MIC50 (Streptococcus pneumoniae): 4 µg/mL (≈ 12 µM) | MIC90 (Streptococcus pneumoniae): 4 µg/mL (≈ 12 µM)

From patent US9539223B2, “Methods for treating bacterial infections” (Neoculi Pty Ltd., priority 2013, dated 2017)
